Experimental data from patent publication US20030044413A1, “Methods of limiting apoptosis of cells” (Regents of the University of Minnesota, priority 1998, published 2003).

Columns and labels:
[1] = Bile acid quantification by gas chromatography in HuH-7 cells; assay type: in vitro ADME, human; settings: 6 h
Procedure: In parallel experiments, isolated rat hepatocytes (2×10^7 cells) and HuH-7 cells (2×10^6 cells) were incubated with 50 μM or 100 μM, respectively, of DCA, UDCA or DCA+UDCA for 6 h. Cells were washed 3 times with PBS, pH 7.4, harvested, centrifuged at 800×g for 5 min in a JS-4.0 Beckman rotor (Beckman Instruments, Inc., Schaumburg, Ill.) at 4° C., washed again, and the final pellet was flash-frozen in liquid nitrogen. Cells were then analyzed for intracellular bile acid concentrations by gas chromatography.
Bile acid quantification by gas chromatography. […] Quantification of bile acids was achieved using gas chromatography, by comparing the peak height response of the individual bile acids with the peak height response obtained from the internal standard, nordeoxycholic acid, which was added to each sample prior to bile acid extraction.

HuH-7 cells [2] = test: Okadaic acid-induced apoptosis, HuH-7 cells; assay type: cell-based, human; settings: 48 h
Procedure: Incubation of cells with ethanol, TGF-β1, anti-Fas antibody or okadaic acid. Freshly isolated rat hepatocytes were cultured for 3 h as described above and then incubated with William's E medium supplemented with either 0.5% ethanol, 50 μM UDCA, ethanol plus UDCA, or no addition (control) for 2 h and 4 h. HuH-7 cells were incubated with Dulbecco's medium supplemented with either 1 nM TGF-β1 (R & D Systems, Minneapolis, Minn.), 100 μM UDCA, TGF-β1+UDCA, or no addition (control) for 24 h, 48 h, and 72 h. Hep G2 cells were incubated with Dulbecco's medium supplemented with either 0.5 μg/ml of anti-Fas antibody CH-11 (Upstate Biotechnology, Inc., Lake Placid, N.Y.), 100 μM UDCA, CH-11+UDCA, or no addition for 48 h. Both HuH-7 cells and human osteogenic sarcoma Saos-2 cells were cultured in Dulbecco's medium supplemented with either 50 nM okadaic acid (Boehringer Mannheim Biochemicals, Inc, Indianapolis, Ind.), 100 μM UDCA, okadaic acid+UDCA, or no addition for 48 h. […]
Morphological evaluation of apoptosis. […] Fluorescence was visualized with a Zeiss standard fluorescence microscope (Carl Zeiss, Inc., Thornwood, N.Y.). […] Stained nuclei were scored by blind analysis and categorized according to the condensation and staining characteristics of chromatin. […] Three fields per dish of approximately 500 nuclei were counted; mean values are expressed as the percent of apoptotic nuclei.

HuH-7 cells [3] = test: FACS analysis of ΔΨm and ROS, HuH-7 cells; assay type: cell-based, human
Procedure: (§1) A ΔΨm and ROS measurement. ΔΨm and ROS production were measured by FACScan (Becton Dickinson) analysis. Freshly isolated rat hepatocytes were cultured for 3 h as described above and then incubated with William's E medium supplemented with either 100 μM DCA, 100 μM UDCA, equal molar amounts of both, or no bile acid (control), for 6 h. Rat hepatocytes were also cultured with either 1% ethanol, 100 μM UDCA, ethanol+UDCA, or no addition (control) for 4 h. HuH-7 cells, Hep G2 cells, and human osteogenic sarcoma Saos-2 cells were incubated with TGF-β1, anti-Fas antibody or okadaic acid, respectively, for 48 h under the same conditions as outlined above. For combination studies, cells were pretreated with UDCA or hyodeoxycholic acid for 60 min prior to addition of DCA, ethanol, TGF-β1, anti-Fas antibody or okadaic acid. Aliquots of 1.0×10^6 cells were incubated for 15 min at 37° C. with 50 nM 3,3′-dihexyloxacarbocyanine iodide [DiOC6(3)], 2 μM dihydroethidium (HE), or 5 μM 2′,7′-dichlorofluorescin diacetate (H2DCFDA; Molecular Probes, Inc. Eugene, Oreg.) and analyzed by cytofluorometry (Cathcart et al., Anal. Biochem., 134, 111-116 (1983); Zamzami et al., J. Exp. Med., 181, 1661-1672 (1 995); Carter et al., J. Leukocyte Biol., 55, 253-258 (1994)).
(§2) Rat primary hepatocytes were incubated with 100 μM DCA and 1% ETOH for 6 h and 4 h, respectively; HuH-7 cells with 1 nM TGF-β1 for 48 h; Hep G2 cells with 0.5 μg/ml anti-Fas antibody (CH-11) for 48 h, and Saos-2 cells with 50 nM okadaic acid (OA) for 48 h. In each combination group, cells were pretreated with 100 μM UDCA alone for 60 min prior to addition of the inducer. Aliquots of 1.0×10^6 cells were incubated for 15 min at 37° C. with 5 μM 2′,7′-dichlorofluorescin diacetate (H2DCFDA) and analyzed by cytofluorometry.

Saos-2 cells = test: Okadaic acid-induced apoptosis, Saos-2 cells; assay type: cell-based, human
Procedure: Incubation of cells with ethanol, TGF-β1, anti-Fas antibody or okadaic acid. Freshly isolated rat hepatocytes were cultured for 3 h as described above and then incubated with William's E medium supplemented with either 0.5% ethanol, 50 μM UDCA, ethanol plus UDCA, or no addition (control) for 2 h and 4 h. HuH-7 cells were incubated with Dulbecco's medium supplemented with either 1 nM TGF-β1 (R & D Systems, Minneapolis, Minn.), 100 μM UDCA, TGF-β1+UDCA, or no addition (control) for 24 h, 48 h, and 72 h. Hep G2 cells were incubated with Dulbecco's medium supplemented with either 0.5 μg/ml of anti-Fas antibody CH-11 (Upstate Biotechnology, Inc., Lake Placid, N.Y.), 100 μM UDCA, CH-11+UDCA, or no addition for 48 h. Both HuH-7 cells and human osteogenic sarcoma Saos-2 cells were cultured in Dulbecco's medium supplemented with either 50 nM okadaic acid (Boehringer Mannheim Biochemicals, Inc, Indianapolis, Ind.), 100 μM UDCA, okadaic acid+UDCA, or no addition for 48 h. In all the combination groups, cells were pretreated with UDCA alone for 60 min prior to addition of ethanol, TGF-β1, anti-Fas antibody or okadaic acid.
Morphological evaluation of apoptosis. Morphology was performed as described previously (Oberhammer et al., Proc. Natl. Acad. Sci. USA 89, 5408-5412 (1992)). Briefly, after fixation (with 4% formaldehyde in PBS, pH 7.4, for 10 min at room temperature), the cells were incubated with Hoechst dye 33258 (Sigma Chemical Co.) at 5 μg/ml in PBS for 5 min, washed with PBS and mounted with PBS:glycerol (3:1, v/v). Fluorescence was visualized with a Zeiss standard fluorescence microscope (Carl Zeiss, Inc., Thornwood, N.Y.). Photographs were taken with Kodak Ektar-1000 film (Eastman Kodak Co.). Stained nuclei were scored by blind analysis and categorized according to the condensation and staining characteristics of chromatin. Normal nuclei were identified as noncondensed chromatin dispersed over the entire nucleus. […] Three fields per dish of approximately 500 nuclei were counted; mean values are expressed as the percent of apoptotic nuclei.

Hep G2 cells = test: FACS analysis of ΔΨm and ROS, Hep G2 cells; assay type: cell-based
Procedure: as §1, §2

HeLa cells = test: Okadaic acid-induced apoptosis, HeLa cells; assay type: cell-based, human
Procedure: HuH-7 cells were treated with 1 nM TGF-β1, 100 μM of either hyodeoxycholic acid, taurocholic acid, tauroursodeoxycholic acid (Sigma Chemical Co.) or glycoursodeoxycholic acid (Steraloids Inc., Wilton, N.H.), or a combination of TGF-β1 plus the individual bile acids for 72 h. HeLa and Cos-7 cells were incubated with 50 nM okadaic acid, 100 μM of either tauroursodeoxycholic acid or glycoursodeoxycholic acid, or a combination of okadaic acid plus the individual bile acids for 24 h. In the combination groups, cells were pretreated with the bile acid alone for 60 min prior to incuation with TGF-β1 or okadaic acid. In all studies, the medium was gently removed at the indicated times and scored for nonviable cells. The attached cells were fixed for morphologic evaluation of apoptosis.
Morphological evaluation of apoptosis. Morphology was performed as described previously (Oberhammer et al., Proc. Natl. Acad. Sci. USA 89, 5408-5412 (1992)). […] Fluorescence was visualized with a Zeiss standard fluorescence microscope (Carl Zeiss, Inc., Thornwood, N.Y.). […] Stained nuclei were scored by blind analysis and categorized according to the condensation and staining characteristics of chromatin. […] Three fields per dish of approximately 500 nuclei were counted; mean values are expressed as the percent of apoptotic nuclei.

cytochrome c = test: Cytochrome c release from isolated mitochondria after MPT; set-up: species or system rat; settings: substance alone on isolated mitochondria
Procedure: Mitochondria isolation. […] In short, animals were sacrificed by exsanguination under ether anesthesia and the livers removed and rinsed in normal saline. Approximately 10 g of minced liver was homogenized at a speed of 800 rpm using 6 complete up and down strokes with a speed controlled mechanical skill drill and a teflon pestle (Tri-R Model K41, Tri-R Instruments, Rockville Center, N.Y.) in an ice-cold solution of 70 mM sucrose, 220 mM mannitol, 1 mM EGTA and 10 mM HEPES, pH 7.4 as a 10% (wt/vol) homogenate. The homogenate was centrifuged at 600×g for 10 min at 4° C. in an SS-34 rotor in a Sorvall RC5C centrifuge (Sorvall Instruments, Newtown, Conn.), and the postnuclear supernatant was centrifuged at 7,000×g for 10 min at 4° C. […] The pellet was resuspended in 2 mL of homogenate buffer, and 1 mL of the resuspended pellet was carefully layered onto a 35-mL self-generating gradient containing 0.25 M sucrose, 1 mM EGTA and percoll (Pharmacia Fine Chemicals, Piscataway, N.J.) (75:25, vol/vol). The mitochondria were purified by centrifugation at 43,000×g for 30 min at 4° C. using a Beckman Ti60 rotor and a Beckman ultracentrifuge model L8-55 (Beckman Instruments, Inc., Schaumburg, Ill.). The clear supernatant solution removed and the lower turbid layer was resuspended in 30 mL of wash buffer containing 0.1 M KCl, 5 mM 3-(N-morpholino)-propane sulfonic acid (MOPS), and 1 mM EGTA, at pH 7.4 and centrifuged at 7,000×g for 10 min at 4° C. The resulting mitochondria pellet was washed in wash buffer two times. A final wash was carried out in chelex-100-treated buffer (Bio-Rad Laboratories, Richmond, Va.; 200-400 mesh, potassium form) without EGTA. The pellet was suspended in 4 mL of chelex-100-treated resuspension buffer containing 125 mM sucrose, 50 mM KCl, 5 mM HEPES, and 2 mM KH2PO4. The usual yield of mitochondria was approximately 25 mg of protein per gram of liver tissue. Mitochondria were used for experiments within 3 h of isolation. Aliquots were removed for examining the purity of the mitochondria preparation.
Measurement of MPT and determination of cytochrome c content in supernatants and mitochondrial pellets after MPT. The MPT was assessed using a spectrophotometric assay measuring high amplitude rapid changes in mitochondria volume. Mitochondria (1 mg protein) were incubated in 1 ml of chelex-100-treated respiration buffer (0.1 M NaCl, 10 mM MOPS, pH 7.4) for 10 min at 25° C. and swelling was monitored at 540 nm in a Beckman DU 64 spectrophotometer. […] Basal values of mitochondria absorbance were measured for 5 min, and the optical density was monitored for an additional 5 min after addition 200 μM DCA or 80 μM phenylarsine oxide (PhAsO; Sigma Chemical Co.). […]

[4] = coincubation with 100 μM DCA and UDCA
[5] = incubated with 100 μM of the individual bile acid
[6] = inducer TGF-β1, HuH-7, inhibition by UDCA
[7] = inducer CH-11, Hep G2, inhibition by UDCA

C[C@H](CCC(=O)O)[C@H]1CC[C@H]2[C@@H]3CC[C@@H]4C[C@H](O)CC[C@]4(C)[C@H]3C[C@H](O)[C@]12C [DCA, deoxycholic acid]
intracellular concentration of the bile acid [1, 4]: 31.7 ± 15.0 nmol
intracellular concentration of the bile acid [1, 5]: 28.8±13.3 nmol/10^8cells

C[C@H](CCC(=O)O)[C@H]1CC[C@H]2[C@@H]3[C@@H](O)C[C@@H]4C[C@H](O)CC[C@]4(C)[C@H]3CC[C@]12C [UDCA, ursodeoxycholic acid]
reduction of the apoptotic response (HuH-7 cells [2]; 50 nM okadaic acid + 100 μM UDCA): > 80%
Peroxides Production (%) Inducer + UDCA (HuH-7 cells [3]; 1 nM TGF-β1 48 h, 100 μM UDCA pretreatment 60 min): 5.8 ± 2.9 %
inhibition at 100 µM (HuH-7 cells [3]; Homo sapiens, inducer TGF-β1, HuH-7, 100 μM UDCA, read-out: % Inhibition of peroxides production): 47.3 ± 16%
Inhibition % Superoxide Anion (HuH-7 cells [3]; [6]): 69.9 ± 15.6%
Inhibition % _Ψm (HuH-7 cells [3]; [6]): 45.0 ± 21.7%
intracellular concentration of the bile acid [1, 4]: 45.5 ± 21.5 nmol
intracellular concentration of the bile acid [1, 5]: 204.7±97.2 nmol/10^8cells
reduction of the apoptotic response (Saos-2 cells; 50 nM okadaic acid + 100 μM UDCA, 48 h): > 80%
Inhibition % Apoptosis (Saos-2 cells; inducer OA, Saos-2, inhibition by UDCA): 81.8 ± 2.3%
Peroxides Production (%) Inducer + UDCA (Hep G2 cells; 0.5 μg/ml CH-11 48 h, 100 μM UDCA pretreatment 60 min): 6.2 ± 1.3 %
inhibition at 100 µM (Hep G2 cells; Homo sapiens, HepG2, inducer CH-11, Hep G2, 100 μM UDCA, read-out: % Inhibition of peroxides production): 52.2 ± 14.9%
Inhibition % Superoxide Anion (Hep G2 cells; [7]): 55.1 ± 10.8 %
Inhibition % _Ψm (Hep G2 cells; [7]): 63.1 ± 11.9%
percent apoptosis (HeLa cells; okadaic acid + UDCA): 20.5±7.1%

C=C1[C@@H](O)[C@@H]2O[C@]3(CC[C@H](/C=C/[C@@H](C)[C@@H]4CC(C)=C[C@@]5(O[C@H](C[C@@](C)(O)C(=O)O)CC[C@H]5O)O4)O3)CC[C@H]2O[C@@H]1[C@@H](O)C[C@H](C)[C@H]1O[C@@]2(CCCCO2)CC[C@H]1C [okadaic acid]
apoptosis induced (HuH-7 cells [2]; 50 nM okadaic acid): > 30%
apoptosis induced (Saos-2 cells; 50 nM okadaic acid, 48 h): > 30%
percent apoptosis (HeLa cells; okadaic acid alone): 50.0±14.9%
translocation of cytochrome c to the supernatants (cytochrome c): nor did they cause translocation of cytochrome c

TGF-β1: transforming growth factor β1, nonmembrane damaging inducer of apoptosis
Peroxides Production (%) Inducer (HuH-7 cells [3]; 1 nM TGF-β1, 48 h, HuH-7): 11.0 ± 2.9%
translocation of cytochrome c to the supernatants (cytochrome c): nor did they cause translocation of cytochrome c
